We go through 22 molecules from patent US10717716B2, “1,3,4-oxadiazole derivative compounds as histone deacetylase 6 inhibitor, and the pharmaceutical composition comprising the same” (Chong Kun Dang Pharmaceutical Corp., priority 2015, dated 2020).

The target of the test is T1, human recombinant HDAC6 (Homo sapiens, UniProt Q9UBN7).
T1 construct: purchased Calbiochem 382180
T1 sequence (Q9UBN7 1-1215): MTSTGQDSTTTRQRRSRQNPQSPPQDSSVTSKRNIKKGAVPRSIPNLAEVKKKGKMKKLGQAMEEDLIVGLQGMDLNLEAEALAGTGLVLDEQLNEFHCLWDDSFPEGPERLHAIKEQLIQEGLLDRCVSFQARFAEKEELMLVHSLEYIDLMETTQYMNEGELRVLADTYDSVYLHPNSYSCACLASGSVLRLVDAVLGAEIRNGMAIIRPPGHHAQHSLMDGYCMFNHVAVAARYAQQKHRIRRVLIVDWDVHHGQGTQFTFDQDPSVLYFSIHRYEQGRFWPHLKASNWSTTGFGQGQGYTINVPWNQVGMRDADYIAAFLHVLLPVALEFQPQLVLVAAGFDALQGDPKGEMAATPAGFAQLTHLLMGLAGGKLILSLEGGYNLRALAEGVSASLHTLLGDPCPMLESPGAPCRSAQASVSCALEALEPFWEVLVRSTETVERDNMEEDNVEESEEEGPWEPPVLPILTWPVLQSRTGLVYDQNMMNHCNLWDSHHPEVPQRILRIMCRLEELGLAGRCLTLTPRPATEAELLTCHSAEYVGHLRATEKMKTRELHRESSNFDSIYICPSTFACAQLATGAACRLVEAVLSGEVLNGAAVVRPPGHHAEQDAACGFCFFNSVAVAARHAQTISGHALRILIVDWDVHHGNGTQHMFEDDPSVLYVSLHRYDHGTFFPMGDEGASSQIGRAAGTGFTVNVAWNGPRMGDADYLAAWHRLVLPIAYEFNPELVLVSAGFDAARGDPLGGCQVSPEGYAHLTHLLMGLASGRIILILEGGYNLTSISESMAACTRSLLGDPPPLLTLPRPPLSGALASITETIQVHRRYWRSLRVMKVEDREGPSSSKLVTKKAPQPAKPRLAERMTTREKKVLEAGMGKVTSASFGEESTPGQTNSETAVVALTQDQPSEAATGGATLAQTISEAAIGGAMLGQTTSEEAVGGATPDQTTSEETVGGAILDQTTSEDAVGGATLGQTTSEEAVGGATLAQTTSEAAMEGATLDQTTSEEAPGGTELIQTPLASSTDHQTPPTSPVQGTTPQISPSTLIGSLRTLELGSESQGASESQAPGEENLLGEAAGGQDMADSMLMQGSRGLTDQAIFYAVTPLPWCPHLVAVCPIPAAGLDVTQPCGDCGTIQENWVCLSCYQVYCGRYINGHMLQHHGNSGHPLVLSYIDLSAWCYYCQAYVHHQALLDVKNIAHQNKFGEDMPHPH
Description: HDAC6 enzyme activity inhibition assay (HDAC Fluorimetric Drug Discovery Kit). The test is classed as biochemical. To be noted: for HDAC6 selectivity (fold): HDAC6 over HDAC1; for IC50: human recombinant HDAC6, same protocol as HDAC1, read-out: HDAC6. As to the method:
In order to examine the HDAC6 selectivity of the compounds of formula I of the present invention by HDAC1 and HDAC6 enzymatic activity inhibition assays, an experiment was performed using a conventional substance as a control.
HDAC enzyme activity was measured using a HDAC Fluorimetric Drug Discovery Kit (BML-AK511, 516, Enzo Life Science). For the HDAC1 enzyme activity test, human recombinant HDAC1 (BML-SE456) was used as an enzyme source, and Fluor de Lys®-“SIRT1 (BNL-KI177) was used as a substrate. A 5-fold dilution of the compound was seeded into a 96-well plate, and then 0.3 μg of the enzyme and 10 μM of the substrate were added to each well of the plate and allowed to react at 30° C. for 60 minutes. Then, Fluor de Lys®-Developer II (BML-KI176) was added thereto and allowed to react for 30 minutes, after which the fluorescence value (Ex 360, Em 460) was measured using a multi-plate reader (Flexstation 3, Molecular Device). The HDAC6 enzyme was tested using human recombinant HDAC6 (382180) (Calbiochem) according to the same protocol as the HDAC1 enzyme activity test method. Based on the resulting values, each IC5, value was calculated using GraphPad Prism4.0 program.

`CN1CCN(C(=O)N(Cc2ccc(-c3nnc(C(F)(F)F)o3)cc2)c2ccccc2)CC1` [Compound 21285, 4-methyl-N-phenyl-N-(4-(5-(trifluoromethyl)-1,3,4-oxadiazol-2-yl)benzyl)piperazine-1-carboxamide]: the “HDAC6 selectivity (fold)” value is reported as 91 fold and the IC50 was determined as 0.11 µM. For the molecule `O=C(N1CCOCC1)N(Cc1ccc(-c2nnc(C(F)(F)F)o2)cc1F)c1ccccc1` [Compound 21318, N-(2-fluoro-4-(5-(trifluoromethyl)-1,3,4-oxadiazol-2-yl)benzyl)-N-phenylmorpholine-4-carboxamide], the “HDAC6 selectivity (fold)” value is given as 145 fold and the IC50 was determined as 0.069 µM. For `O=C(N1CCOCC1)N(Cc1ccc(-c2nnc(C(F)(F)F)o2)c(F)c1)c1ccccc1` [Compound 21319, N-(3-fluoro-4-(5-(trifluoromethyl)-1,3,4-oxadiazol-2-yl)benzyl)-N-phenylmorpholine-4-carboxamide], the “HDAC6 selectivity (fold)” value is reported as 52 fold and the IC50 stood at 0.192 µM.

For `O=C(N1CCOCC1)N(Cc1ccc(-c2nnc(C(F)F)o2)cc1)c1ccccc1` [Compound 21325, N-(4-(5-(difluoromethyl)-1,3,4-oxadiazol-2-yl)benzyl)-N-phenylmorpholine-4-carboxamide], the “HDAC6 selectivity (fold)” value is 204 fold and the IC50 amounted to 0.049 µM. Regarding `O=C(N1CCOCC1)N(Cc1ccc(CCc2nnc(C(F)(F)F)o2)cc1)c1ccccc1` [Compound 21327, N-phenyl-N-(4-(2-(5-(trifluoromethyl)-1,3,4-oxadiazol-2-yl)ethyl)benzyl)morpholine-4-carboxamide], the “HDAC6 selectivity (fold)” value amounted to 1 fold. As for `O=C(N1CCOCC1)N(Cc1cccc(-c2nnc(C(F)(F)F)o2)c1)c1ccccc1` [Compound 21329, N-phenyl-N-(3-(5-(trifluoromethyl)-1,3,4-oxadiazol-2-yl)benzyl)morpholine-4-carboxamide], the “HDAC6 selectivity (fold)” value is on record as 1 fold.

For the molecule `O=C(N1CCOCC1)N(Cc1ccc(-c2nnc(C(F)(F)F)o2)nc1)c1ccccc1` [Compound 21333, N-phenyl-N-((6-(5-(trifluoromethyl)-1,3,4-oxadiazol-2-yl)pyridin-3-yl)methyl)morpholine-4-carboxamide], the “HDAC6 selectivity (fold)” value is 1 fold. On to `O=C(N1CCOCC1)N(Cc1ccc(-c2nnc(C(F)(F)F)o2)cn1)c1ccccc1` [Compound 21336, N-phenyl-N-((5-(5-(trifluoromethyl)-1,3,4-oxadiazol-2-yl)pyridin-2-yl)methyl)morpholine-4-carboxamide], for which the “HDAC6 selectivity (fold)” value is 105 fold and the IC50 was 0.095 µM. `O=C(N1CCOCC1)N(Cc1ccc(-c2nnc(C(F)F)o2)cc1F)c1ccccc1` [Compound 21337, N-(4-(5-(difluoromethyl)-1,3,4-oxadiazol-2-yl)-2-fluorobenzyl)-N-phenylmorpholine-4-carboxamide]: the “HDAC6 selectivity (fold)” value stood at 357 fold and the IC50 came to 0.028 µM. Regarding `O=C(NC1CCC1)N(Cc1ccc(-c2nnc(C(F)(F)F)o2)cc1)c1ccccc1` [Compound 21340, 3-Cyclobutyl-1-phenyl-1-(4-(5-(trifluoromethyl)-1,3,4-oxadiazol-2-yl)benzyl)urea], the “HDAC6 selectivity (fold)” value came to 12 fold and the IC50 came out at 0.836 µM. On to `O=C(NC1CCCC1)N(Cc1ccc(-c2nnc(C(F)(F)F)o2)cc1)c1ccccc1` [Compound 21341, 3-Cyclopentyl-1-phenyl-1-(4-(5-(trifluoromethyl)-1,3,4-oxadiazol-2-yl)benzyl)urea], for which the “HDAC6 selectivity (fold)” value was 8 fold and the IC50 was 1.19 µM. With `O=C(NC1CCCCC1)N(Cc1ccc(-c2nnc(C(F)(F)F)o2)cc1)c1ccccc1` [Compound 21342, 3-Cyclohexyl-1-phenyl-1-(4-(5-(trifluoromethyl)-1,3,4-oxadiazol-2-yl)benzyl)urea], the “HDAC6 selectivity (fold)” value worked out at 5 fold and the IC50 was 1.99 µM. Consider `COc1cc(-c2nnc(C(F)(F)F)o2)ccc1CN(C(=O)N1CCOCC1)c1ccccc1` [Compound 21343, N-(2-methoxy-4-(5-(trifluoromethyl)-1,3,4-oxadiazol-2-yl)benzyl)-N-phenylmorpholine-4-carboxamide], for which the “HDAC6 selectivity (fold)” value amounted to 1 fold and the IC50 is 10.7 µM. Taken in the same sequence, the figures for `O=C(N1CCN(Cc2ccccc2)CC1)N(Cc1ccc(-c2nnc(C(F)(F)F)o2)cc1)c1ccccc1` [Compound 21344, 4-Benzyl-N-phenyl-N-(4-(5-(trifluoromethyl)-1,3,4-oxadiazol-2-yl)benzyl)piperazine-1-carboxamide] were 12 fold and 0.83 µM.

With `COCCN1CCN(C(=O)N(Cc2ccc(-c3nnc(C(F)(F)F)o3)cc2)c2ccccc2)CC1` [Compound 21345, 4-(2-Methoxyethyl)-N-phenyl-N-(4-(5-(trifluoromethyl)-1,3,4-oxadiazol-2-yl)benzyl)piperazine-1-carboxamide], the “HDAC6 selectivity (fold)” value is 54 fold and the IC50 came out at 0.185 µM. Taken in the same sequence, the figures for `CCN1CCN(C(=O)N(Cc2ccc(-c3nnc(C(F)(F)F)o3)cc2)c2ccccc2)CC1` [Compound 21346, 4-Ethyl-N-phenyl-N-(4-(5-(trifluoromethyl)-1,3,4-oxadiazol-2-yl)benzyl)piperazine-1-carboxamide] were 58 fold and 0.173 µM. Turning to `CC(C)N1CCN(C(=O)N(Cc2ccc(-c3nnc(C(F)(F)F)o3)cc2)c2ccccc2)CC1` [Compound 21347, 4-Isopropyl-N-phenyl-N-(4-(5-(trifluoromethyl)-1,3,4-oxadiazol-2-yl)benzyl)piperazine-1-carboxamide], the “HDAC6 selectivity (fold)” value was determined as 55 fold and the IC50 is 0.183 µM. For `O=C(N1CCOCC1)N(CCc1ccc(-c2nnc(C(F)(F)F)o2)cc1)c1ccccc1` [Compound 21348, N-phenyl-N-(4-(5-(trifluoromethyl)-1,3,4-oxadiazol-2-yl)phenethyl)morpholine-4-carboxamide] the same measures were 1 fold and 8.36 µM. `O=C(N1CCC1)N(Cc1ccc(-c2nnc(C(F)(F)F)o2)cc1)c1ccccc1` [Compound 21349, N-phenyl-N-(4-(5-(trifluoromethyl)-1,3,4-oxadiazol-2-yl)benzyl)azetidine-1-carboxamide]: the “HDAC6 selectivity (fold)” value came out at 23 fold and the IC50 was found to be 0.43 µM.

As to `O=C(N1CCCC1)N(Cc1ccc(-c2nnc(C(F)(F)F)o2)cc1)c1ccccc1` [Compound 21350, N-phenyl-N-(4-(5-(trifluoromethyl)-1,3,4-oxadiazol-2-yl)benzyl)pyrrolidine-1-carboxamide], the “HDAC6 selectivity (fold)” value is listed as 19 fold and the IC50 is 0.53 µM. For `O=C(N1CCCCC1)N(Cc1ccc(-c2nnc(C(F)(F)F)o2)cc1)c1ccccc1` [Compound 21351, N-phenyl-N-(4-(5-(trifluoromethyl)-1,3,4-oxadiazol-2-yl)benzyl)piperidine-1-carboxamide] the same measures were 38 fold and 0.261 µM. In the case of `CC(C)(C)OC(=O)N1CCN(C(=O)N(Cc2ccc(-c3nnc(C(F)(F)F)o3)cc2)c2ccccc2)CC1` [Compound 21352, Tert-butyl 4-(phenyl(4-(5-(trifluoromethyl)-1,3,4-oxadiazol-2-yl)benzyl)carbamoyl)piperazine-1-carboxylate], the “HDAC6 selectivity (fold)” value was 9 fold and the IC50 came to 1.1 µM.
